Where a name gives a salt, the structure may show the parent alone.
Key:
[1] = test system: conA stimulated spleen cells (T lymphocytes) from female Balb/c mice; assay: Assay B: Suppression of Mitogen-Stimulated Proliferation (Murine) (Culture Conditions II); assay type: cell-based, Murine (Balb/c mice); conditions: Mus musculus, T-lymphocyte, 72 h; conA 1 ug/ml, 10^5 cells per well, 3 days, MTT
Excerpt: Assay B: Suppression of Mitogen-Stimulated Proliferation(Murine)(Culture Conditions II.)
It is known that lymphocyte activation can be polyclonally stimulated by plant lectins and other mitogenic substances that induce blast transformation and mitosis. The plant lectin concanavalin A (conA) preferentially induces activation and proliferation of T lymphocytes. Exposure of T cells to conA results in polyclonal T cell activation, and this response can be used to determine the in vitro index of immunomodulatory effects of test compounds on pan-T cell activation. Spleen cells were harvested asceptically from female Balb/c mice, and cells were extruded by compression in phosphate buffered saline (pH 7.0). Cells were pelleted by centrifugation (300×g/5 min) and erythrocytes were lysed by resuspension of the splen cells in a hypotonic solution (5 ml per spleen) containing 0.14M NH4 Cl and 0.017M Tris base, pH 7.2, and incubation for 5 min. An equal volume of freshly prepared medium [lscovels modified Dulbecco's medium containing 2 mM L-glutamine, 5% heat inactivated (56° C./45 min) fetal bovine serum and 40 uM 2-mercaptoethanol] .was added to stop cell lysis. The remaining cells were pelleted, resuspended in medium, filtered through a cotton plug to remove debris, and the leukocytes were then counted. Leukocytes (10^5 cells per 10 ul per well) were incubated at 37° C. in a 95% air/[…] atmosphere in 96 well microtiter plates for 3 days. At the start of culture conA (1 ug/ml, SIGMA Chemical Co., St. Louis, Mo.) alone or in combination with test compound (0.0001-60 uM final) or vehicle control (0.6% DMSO or ethanol). All test compounds were dissolved in 95% ethanol or 100% DMSO, and subsequent dilutions were prepared in media. Inhibition of conA stimulated T cell proliferation was measured using a calorimetric indicator of cell growth and proliferation, MTT [3-(4,5-dimethylthiazol-2-yl)-2 diphenyltetrazolium bromide; 100 ul of a 1 mg/ml solution per well, SIGMA][Mosmann, T., 1988. J. Immunol. Methods 65, 55-63.]Cells were loaded with MTT dye at 37° C. for 4 hours; media supernatants were then aspirated from the cell pellets. MTT loaded cells were solubilized in isopropanol (150 ul per well). Light absorbance was measured at a test wavelength of 570 nm and a reference wavelength of 650 nm using a spectrophotometer. EC50 values for immunosuppressive compounds were estimated by four parameter logistical regression analysis of the optical density data [Delean, A., Munson, P. J. and D. Robard, 1978. Am,. J. Physiol. 235:397.

[2] = test system: ConA-stimulated spleen cells (T-cells) from female Balb/c mice; assay: Assay A: Suppression of Mitogen-Stimulated Proliferation (Murine) (Culture Conditions I); assay type: cell-based, Murine (Balb/c mice); conditions: Mus musculus, T-cell, 120 h; ConA 1.0 μg/ml, 10^5 cells/well, 5 days, MTT
Excerpt: Assay A: Suppression of Mitogen-Stimulated Proliferation (Murine)(Culture Conditions I)
Lymphocyte activation can be polyclonally stimulated by plant lectins and other mitogens that induce blast transformation and mitosis. Certain mitogens like Concanavalin A (ConA), preferentially activate T-lymphocytes. Exposure to ConA results in polyclonal activation of T-cells and can be used as an in vitro index for general immunomodulation of pan T-cell activity. In this assay spleen cells harvested from female Balb/c mice were incubated at 37° C., in 95% air/5% CO2 atmosphere in 96 well microtiter plates (10^5 cells/well) for 5 days with Iscove's modified Dulbecco's medium [25 mM HEPES […] L-glutamine, 5% fetal bovine serum and 2-mercaptoethanol (40 μM)], concanavalin A (ConA) alone (Sigma, St. Louis, Mo.; 1.0 μg/ml) or ConA in the presence of test compounds (0.001-25 μM). Inhibition of ConA-stimulated proliferation was measured by addition of the calorimetric indicator of growth metabolic activity or viability, MTT (3-(4,5-dimethylthiazol-2-yl)-2 diphenyl tetrazolium bromide; (100 μl/well, 1 mg/ml) Sigma) [Mosmann, T., J. of Immunological Methods, 65, 55-63, 1988]. After four hours, plates were centrifuged (1200 rpm) media supernatants aspirated and dye loaded cells were solubilized in isopropanol (150 μl/well). The absorbance was measured on an ELISA plate reader with a test wavelength of 570 nm and a reference of 630 nm. The IC50 values for active immunosuppressant compounds were calculated by four parameter logistic regression analysis of the results [Delean et al, Am. J. Physiol., 235, 397 (1978)].

[3] = test system: human peripheral blood mononuclear cells; assay: Assay C: One-Way Mixed Lymphocyte Reaction (Human); assay type: cell-based; conditions: mitomycin-C inactivated Raji stimulator cells, 120 hours, 3H-thymidine incorporation
Excerpt: Assay C: One-Way Mixed Lymphocyte Reaction (Human)
The mixed lymphocyte reaction (MLR) is an assay that measures T-cell activation and mitosis which occurs when lymphocytes from different major and minor histocompatibility complex (MHC) haplotypes are cocultured. This response is considered a "one-way MLR" when stimulator cells are made unresponsive by inhibition of DNA synthesis (treatment with mitomycin-C or gamma-irradiation) prior to coculture with responder cells. This assay can be used as an indicator of the cellular immunomodulation mechanisms involved in transplant rejection. In this assay, human peripheral blood mononuclear cells(PMNC) were used as the responder cell population and were isolated from normal donor blood as follows: Blood samples were collected in LeucoPREP™ tubes (Becton Dickinson, Lincoln Park, N.J.) and the mononuclear cell preparation was obtained by following the manufacturers procedures. Isolated mononuclear cells were co-incubated at 6×10^4 cells/well with a stimulator cell line at 2×10^4 cells/well in RPMI 1640 medium containing 5% fetal bovine serum and 2-mercaptoethanol (40 μM). The stimulator cell line, Raji, which was derived from a human Burkitt lymphoma (American Type Culture Collection, Rockville Md.) was previously inactivated by mitomycin-C treatment (Sigma, St. Louis Mo., 25 μg/ml, 37° for 30 minutes). After repeated washings of mitomycin-C from the stimulator cell line, cocultures were incubated in 96 well microtiter plates at 37° C., in 95% air/5% CO2 atmosphere for 120 hours in the presence or absence of test compounds (0.1-25 μM). Inhibition of proliferation was measured by reduced incorporation of ^3 H-thymidine (0.5 μCi/well, added during the last 24 hours of the assay). The IC50 values for the immunosuppressant compounds were calculated by four parameter logistic regression analysis of the results [Delean et al, Id.]

[4] = literature, Acta. Pharmacologica Sinica, 11(3), 281-285 (1990); cited from earlier work

| Structure (SMILES) | IC50 [1] | IC50 [2] | IC50 [3] | acute and chronic antiinflammatory effects [4] |
| --- | --- | --- | --- | --- |
| CC(C)C(C#N)(CCCN(C)Cc1ccccc1)c1ccc(F)c(F)c1 (racemic) [Example 1, (±)-3,4-difluoro-α-(1-methylethyl)-α-[3-[methyl(phenylmethyl)amino]propyl]benzeneacetonitrile] | 2410 nM |  |  |  |
| CC(C)C(C#N)(CCCN(C)Cc1ccccc1)c1ccc(F)cc1 (racemic) [Example 2, (±)-4-fluoro-α-(1-methylethyl)-α-[3-[methyl (phenylmethyl)amino]propyl]benzeneacetonitrile, monohydrochloride] | 5190 nM | 2200 nM | 7200 nM |  |
| COC(=O)C1=C(C)NC(C)=C(C(=O)OCCN(C)Cc2ccccc2)C1c1cccc([N+](=O)[O-])c1 (stereo not shown) [nicardipine] |  |  |  | dose-dependent acute and chronic antiinflammatory effects |
| COC(=O)C1=C(C)NC(C)=C(C(=O)OC)C1c1ccccc1[N+](=O)[O-] [nifedipine] |  |  |  | dose-dependent acute and chronic antiinflammatory effects |
| CC(C)C(C#N)(CCCN(Cc1ccccc1)Cc1ccccc1)c1ccc(F)cc1 (racemic) [Example 10, (±)-α-[3-[bis(phenylmethyl)amino]propyl]-4-fluoro-α-(1-methylethyl)benzeneacetonitrile, monohydrochloride] | 13500 nM |  |  |  |
| CC(C)C(C#N)(CCCN(C)CCc1ccccc1)c1ccc(F)cc1 (racemic) [Example 3, (±)-4-fluoro-α-(1-methylethyl)-α-[3-[methyl(2-phenylethyl)amino]propyl]benzeneacetonitrile, monohydrochloride] | 3220 nM | 1000 nM | 4800 nM |  |
| CN(CCCC(C#N)(c1ccc(F)cc1)C1CCCC1)Cc1ccccc1 (racemic) [Example 4, (±)-α-cyclopentyl-4-fluoro-α-[3-(methyl(phenylmethyl)amino]propyl]benzeneacetonitrile, monohydrochioride] | 4810 nM | 3200 nM | 2300 nM |  |
| CC(C)C(C#N)(CCCN(C)Cc1ccccc1)c1c(F)cccc1F (racemic) [Example 9, (±)-2,6-difluoro-α-(1-methylethyl)-α-[3-[methyl(phenylmethyl)amino]propyl]benzeneacetonitrile, monohydrochloride] | 4150 nM |  |  |  |
| CC(C)C(C#N)(CCCCCN(C)Cc1ccccc1)c1ccc(F)cc1 (racemic) [Example 6, (±)-4-fluoro-α-(1-methylethyl)-α-[5-methyl(phenylmethyl)amino]pentyl]benzeneacetonitrile] | 930 nM | 500 nM |  |  |
| CC(C)C(C#N)(CCCN(C)Cc1ccccc1)c1ccccc1F (racemic) [Example 8, (±)-2-fluoro-α-(1-methylethyl)-α-[3-[methyl (phenylmethyl)amino]propyl]benzeneacetonitrile, monohydrochloride] | 3350 nM | 1400 nM | 2900 nM |  |
| CC(C)C(C#N)(CCCCN(C)Cc1ccccc1)c1ccc(F)cc1 (racemic) [Example 5, (±)-4-fluoro-α-(1-methylethyl)-α-[4-(methyl (phenylmethyl)amino]butyl]benzeneacetonitrile, monohydrochloride] | 1760 nM | 900 nM | 2100 nM |  |

— patent publication US6265439A, “Halogenated phenylacetonitrile alkylaminoalkylphenyl compounds as immunosuppressives” (G.D. Searle & Co., priority 2000, dated 2001)
